“Also recorded” adds a separate entry of the source.
Test system: AKR/J mice exposed to cigarette smoke for 5 months
Assay: Chronic 5 months cigarette smoke exposure model, LXR agonist in diet
Format: in vivo, mouse
Details: for cigarette smoke induced protein levels of TNFα in the BAL / level of ABCA1 in BAL and lung tissue / total inflammatory cell counts in BAL: diet 0.015% w/w (30 mg/kg)
Description: Mice were chronically exposed to smoke in a specially designed chamber (Teague Enterprise, CA). 8 weeks old mice were smoke-exposed for 5 hours a day, 5 days a week for 10 days and 5 months. The total particulate matter (TPM) within the smoking chamber was regulated so that the mice receive a TPM of 100 mg/m^3. TPM was determined by a gravimetric analysis of filter samples taken during the exposure period. Mice (C57BL/6, AKR/J strain) were smoke exposed for 10 days and 5 months and compared to room air exposed controls.
Eight week-old AKR/J mice were utilized in the study and exposed to three different conditions: room air (n=8), cigarette smoke (n=8), cigarette smoke with additional treatment with LXR agonist (n=8). The LXR agonist was delivered in the diet and the concentration calculated based on the average mouse weight (30 g) and food consumption (6 g/day). Experimental food was prepared with a 0.015% LXR agonist (T0901317-Cayman Chemicals) in food (w/w) concentration corresponding to 30 mg/kg body weight. Both the control group and the custom drug diet were prepared by Research diets, Inc., New Brunswick, N.J. (Control diet (C11000)—Purina Rodent Chow 5001, Custom Diet (C13861)—Purina Rodent Chow 5001 with 0.015% LXR agonist (T0901317-Cayman Chemicals).
To determine the pulmonary compliance of the lung, a closed chest model was utilized (Foronjy et al., 2005). Respiratory mechanics were measured using a flexiVent (SCIREQ) system (Foronjy et al., 2005). Pentobarbital was used for sedation and succinylcholine for paralysis. The mice then underwent neck dissection and tracheostomy followed by a full assessment of pulmonary mechanics in triplicate utilizing the flexiVent system (Foronjy et al., 2005). After the airway measurements were performed the animals were sacrificed by CO2 inhalation and further utilized for tissue, BAL and lung analysis.
The BAL fluid was collected by perfusing the lungs with 2 ml of phosphate buffered saline (PBS). The samples were then centrifuged to pellet down the cells and re-suspended in 300 μl of PBS. To obtain the total cell count, cells were counted using a hematocytometer for which, 10 μl of the sample was utilized. To obtain the differential cell count, the slides were prepared using a cytopsin. 150 μl of sample was taken to prepare slides. These slides were stained using Hematoxylin and Eosin (H&E) and a number of regular and foamy like macrophages and lymphocytes counted under the microscope. A foamy like phenotype (Hirama et al., 2007) was identified by examining the sequential increase in macrophage size. Lipid staining was not performed.
Histological evaluation of the inflammation was performed on the left lungs which were fixed using 10% formalin. Fixed tissue was stained with H&E and Trichrome and mean linear intercept (MLI) determined as described previously (Foronjy et al., 2008; Foronjy et al., 2005; Foronjy et al., 2001; Foronjy et al., 2010; Foronjy et al., 2008a; Foronjy et al., 2006; Foronjy et al., 2003; Geraghty et al., 2013).
Total RNA was extracted from specimens of lung tissue 0.3 cm^3 in size with the use of the RNeasy kit (Qiagen, Germantown, Md.) (Goldklang et al., 2012). The RNA was then further processed to obtain cDNA, which was used for Real Time (RT) PCR analysis. TaqMan gene expression assays (Applied Biosystems, Carlsbad, Calif.) were performed to assess gene-transcript levels with the use of an ABI Prism 7900HT Sequence Detection System (Applera, Foster City, Calif.) (Goldklang et al., 2012). The following primers were used to check the respective gene expression: ABCA1 (Hs01059118_m1), ABCG1 (Hs00245154_m1), MMP-9 (Mm00442991_m1), IL-1β (Mm00434227_g1), TNF-α (Mm00443260_g1) and GAPDH (4352932E) from TaqMan Gene Expression Assays, Applied Biosystems, CA. β-actin was used as a control since it is a housekeeping gene.

[1] = 5 months smoke, mass spectrometry
[2] = 5 months smoke, listed as LXR agonist
[3] = diet 0.015% w/w, 5 months smoke

SMILES: O=S(=O)(c1ccccc1)N(CC(F)(F)F)c1ccc(C(O)(C(F)(F)F)C(F)(F)F)cc1 [T0901317, N-(2,2,2-trifluoroethyl)-N-[4-[2,2,2-trifluoro-1-hydroxy-1-(trifluoromethyl)ethyl]phenyl]-benzenesulfonamide]
- collagen airway and vessels deposition (5 months smoke, Masson Trichrome staining): decrease
- cigarette smoke induced increase in C14 and C16 ceramides in BAL [1]: reduced
- total level of ceramides in the BAL [1]: reduced
- smoke induced increase in IFNγ and MCP-1 in the lung (diet 0.015% w/w): inhibited
- cigarette smoke induced protein levels of TNFα in the BAL (5 months smoke): decreased
- level of ABCA1 in BAL and lung tissue (5 months smoke): induced
- total inflammatory cell counts in BAL (5 months smoke): decrease
- cigarette smoke induced protein levels of TNFα in the BAL [2]: abrogated
- level of ABCA1 in BAL and lung tissue [2]: successfully increased; also recorded: restored
- total inflammatory cell counts in BAL [2]: significantly decreased
- lung structure / emphysema development by mean linear intercept [3]: preserved the lung structure and blocked emphysema development
- mRNA expression of MMP-9 and TNFα in the lungs [3]: No significant changes
- mRNA levels of MMP-9 in the BAL cells [3]: not significantly altered
- alveolar macrophage population exhibiting a foam cell-like phenotype (diet 0.015% w/w, 5 months smoke, differential BAL cell counts): significantly reduced
- lung elastance (diet 0.015% w/w, 5 months smoke, flexiVent): increase
- lung compliance (diet 0.015% w/w, 5 months smoke, flexiVent, vs untreated smoke exposed mice): decrease
- smoke induced MMP-9 activity in the BAL (diet 0.015% w/w, gelatin zymography): attenuated

Source: patent US20160310454A1, “LIVER X RECEPTOR AGONISTS IN THE TREATMENT OF EMPHYSEMA” (priority 2013, published 2016)
